Experimental data published in paper PMC4538536, “In Silico-Based High-Throughput Screen for Discovery of Novel Combinations for Tuberculosis Treatment” (Antimicrobial Agents and Chemotherapy, 2015).
In brackets after ≈: the same amount, converted by molar mass. Where two headings read alike, the source gives them in different places.

Columns and labels:
M. tuberculosis H37Rv [1] = test: MIC determination, resazurin-based microplate assay; format: cell-based, Mycobacterium tuberculosis; conditions: Mycobacterium tuberculosis, single drug
M. tuberculosis H37Rv [2] = test: In vitro bactericidal-effect analysis (CFU enumeration of checkerboard wells); format: cell-based, Mycobacterium tuberculosis; conditions: single drug at its MIC (FIC of 1); positive = reduction in CFU
Method in brief: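 Wells staying blue in REMA checkerboards with ΣFIC <0.7 (pairs) or <1.5 (triplets) plated on Middlebrook 7H10, 37°C for 21 to 28 days; CFU reduction computed versus untreated start-of-testing counts and versus each drug alone.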

[3] = In vivo pharmacokinetics in infected mice (plasma, LC-MS/MS); design: species or system BALB/c mice; conditions: mouse; for AUC(0-t) / Cmax: po, steady state, infected mice
[4] = in vivo, 25 mg/kg; cited from earlier work
[5] = BALB/c, plasma, 25 mg/kg, Group 5 triplet EMB 100/BDQ 25/SQ109 25 mg/kg oral, read-out: AUC0-24 in Triplet
[6] = BALB/c, plasma, 25 mg/kg, Group 5 triplet EMB 100/BDQ 25/SQ109 25 mg/kg oral, read-out: Cmax in Triplet
[7] = BALB/c, plasma, 50 mg/kg, Group 2 triplet SQ109 25/BDQ 25/PA824 50 mg/kg oral, read-out: AUC0-24 in Triplet
[8] = BALB/c, plasma, 50 mg/kg, Group 2 triplet SQ109 25/BDQ 25/PA824 50 mg/kg oral, read-out: Cmax in Triplet
[9] = BALB/c, plasma, 150 mg/kg, Group 2 quartet SQ109 25/BDQ 25/PA824 50/PZA 150 mg/kg oral, read-out: AUC0-24 in Quartet
[10] = BALB/c, plasma, 150 mg/kg, Group 2 quartet SQ109 25/BDQ 25/PA824 50/PZA 150 mg/kg oral, read-out: Cmax in Quartet
[11] = BALB/c, plasma, 150 mg/kg, Group 5 quartet EMB 100/BDQ 25/SQ109 25/PZA 150 mg/kg oral, read-out: AUC0-24 in Quartet
[12] = BALB/c, plasma, 150 mg/kg, Group 5 quartet EMB 100/BDQ 25/SQ109 25/PZA 150 mg/kg oral, read-out: Cmax in Quartet

## COc1nc2ccc(Br)cc2cc1[C@@H](c1ccccc1)[C@@](O)(CCN(C)C)c1cccc2ccccc12 [Bedaquiline]
M. tuberculosis H37Rv [1]
  MIC: 0.35 µM (≈ 0.194 µg/mL)
M. tuberculosis H37Rv [2]
  ΔLog10 CFU/ml at the MIC: 0.02 Log10 CFU/ml
[3]; [5]
  AUC(0-t): 22200 ± 1600 ng·h/mL
[3]; [6]
  Cmax: 2000 ± 600 ng/mL
[3]; BALB/c, plasma, 50 mg/kg, Group 1 triplet CFZ 20/BDQ 25/PA824 50 mg/kg oral, read-out: AUC0-24 in Triplet
  AUC(0-t): 21000 ± 1700 ng·h/mL
[3]; BALB/c, plasma, 50 mg/kg, Group 1 triplet CFZ 20/BDQ 25/PA824 50 mg/kg oral, read-out: Cmax in Triplet
  Cmax: 1600 ± 100 ng/mL
[3]; [7]
  AUC(0-t): 34900 ± 5800 ng·h/mL
[3]; [8]
  Cmax: 3600 ± 2800 ng/mL
[3]; BALB/c, plasma, 100 mg/kg, Group 8 triplet PA824 50/BDQ 25/EMB 100 mg/kg oral, read-out: AUC0-24 in Triplet
  AUC(0-t): 43300 ± 6000 ng·h/mL
[3]; BALB/c, plasma, 100 mg/kg, Group 8 triplet PA824 50/BDQ 25/EMB 100 mg/kg oral, read-out: Cmax in Triplet
  Cmax: 3100 ± 200 ng/mL
[3]; BALB/c, plasma, 150 mg/kg, Group 1 quartet CFZ 20/BDQ 25/PA824 50/PZA 150 mg/kg oral, read-out: AUC0-24 in Quartet
  AUC(0-t): 30900 ± 5200 ng·h/mL
[3]; BALB/c, plasma, 150 mg/kg, Group 1 quartet CFZ 20/BDQ 25/PA824 50/PZA 150 mg/kg oral, read-out: Cmax in Quartet
  Cmax: 2600 ± 500 ng/mL
[3]; [9]
  AUC(0-t): 31400 ± 5400 ng·h/mL
[3]; [10]
  Cmax: 2300 ± 500 ng/mL
[3]; [11]
  AUC(0-t): 21500 ± 1600 ng·h/mL
[3]; [12]
  Cmax: 1700 ± 700 ng/mL
[3]; BALB/c, plasma, 150 mg/kg, Group 7 quartet PA824 50/BDQ 25/MXF 400/PZA 150 mg/kg oral, read-out: AUC0-24 in Quartet
  AUC(0-t): 24600 ± 2900 ng·h/mL
[3]; BALB/c, plasma, 150 mg/kg, Group 7 quartet PA824 50/BDQ 25/MXF 400/PZA 150 mg/kg oral, read-out: Cmax in Quartet
  Cmax: 4500 ± 1300 ng/mL
[3]; BALB/c, plasma, 150 mg/kg, Group 8 quartet PA824 50/BDQ 25/EMB 100/PZA 150 mg/kg oral, read-out: AUC0-24 in Quartet
  AUC(0-t): 50700 ± 8900 ng·h/mL
[3]; BALB/c, plasma, 150 mg/kg, Group 8 quartet PA824 50/BDQ 25/EMB 100/PZA 150 mg/kg oral, read-out: Cmax in Quartet
  Cmax: 4200 ± 1500 ng/mL
[3]; BALB/c, plasma, 400 mg/kg, Group 7 triplet PA824 50/BDQ 25/MXF 400 mg/kg oral, read-out: AUC0-24 in Triplet
  AUC(0-t): 63200 ± 16700 ng·h/mL
[3]; BALB/c, plasma, 400 mg/kg, Group 7 triplet PA824 50/BDQ 25/MXF 400 mg/kg oral, read-out: Cmax in Triplet
  Cmax: 3600 ± 100 ng/mL

## CC(C)=CCC/C(C)=C/CNCCNC1C2CC3CC(C2)CC1C3 (centres unmarked) [SQ109]
M. tuberculosis H37Rv [1]
  MIC: 1.18 µM (≈ 0.39 µg/mL)
M. tuberculosis H37Rv [2]
  ΔLog10 CFU/ml at the MIC: 1.40 Log10 CFU/ml
[3]; BALB/c, plasma, oral, SQ109 25 mg/kg, EMB 100 mg/kg, in 3- and 4-drug combinations, read-out: observed AUC in combinations
  AUC: 2000 to 8900 ng·h/mL
[3]; [5]
  AUC(0-t): 7800 ± 4900 ng·h/mL
[3]; [6]
  Cmax: 5500 ± 5100 ng/mL
[3]; BALB/c, plasma, 25 mg/kg, Group 6 triplet BTZ043 37.5/THI 800/SQ109 25 mg/kg oral, read-out: AUC0-24 in Triplet
  AUC(0-t): 3100 ± 300 ng·h/mL
[3]; BALB/c, plasma, 25 mg/kg, Group 6 triplet BTZ043 37.5/THI 800/SQ109 25 mg/kg oral, read-out: Cmax in Triplet
  Cmax: 900 ± 500 ng/mL
[3]; [7]
  AUC(0-t): 8900 ± 3700 ng·h/mL
[3]; [8]
  Cmax: 5200 ± 2700 ng/mL
[3]; BALB/c, plasma, 130 mg/kg, Group 9 triplet EMB 100/SQ109 25/LZD 130 mg/kg oral, read-out: AUC0-24 in Triplet
  AUC(0-t): 4700 ± 1400 ng·h/mL
[3]; BALB/c, plasma, 130 mg/kg, Group 9 triplet EMB 100/SQ109 25/LZD 130 mg/kg oral, read-out: Cmax in Triplet
  Cmax: 900 ± 400 ng/mL
[3]; [9]
  AUC(0-t): 5100 ± 800 ng·h/mL
[3]; [10]
  Cmax: 3500 ± 1400 ng/mL
[3]; BALB/c, plasma, 150 mg/kg, Group 3 quartet BTZ043 37.5/SQ109 25/MXF 200/PZA 150 mg/kg oral, read-out: AUC0-24 in Quartet
  AUC(0-t): 1800 ± 400 ng·h/mL
[3]; BALB/c, plasma, 150 mg/kg, Group 3 quartet BTZ043 37.5/SQ109 25/MXF 200/PZA 150 mg/kg oral, read-out: Cmax in Quartet
  Cmax: 500 ± 200 ng/mL
[3]; [11]
  AUC(0-t): 4900 ± 100 ng·h/mL
[3]; [12]
  Cmax: 2700 ± 500 ng/mL
[3]; BALB/c, plasma, 150 mg/kg, Group 6 quartet BTZ043 37.5/THI 800/SQ109 25/PZA 150 mg/kg oral, read-out: AUC0-24 in Quartet
  AUC(0-t): 4900 ± 2200 ng·h/mL
[3]; BALB/c, plasma, 150 mg/kg, Group 6 quartet BTZ043 37.5/THI 800/SQ109 25/PZA 150 mg/kg oral, read-out: Cmax in Quartet
  Cmax: 3100 ± 2800 ng/mL
[3]; BALB/c, plasma, 150 mg/kg, Group 9 quartet EMB 100/SQ109 25/LZD 130/PZA 150 mg/kg oral, read-out: AUC0-24 in Quartet
  AUC(0-t): 7600 ± 3600 ng·h/mL
[3]; BALB/c, plasma, 150 mg/kg, Group 9 quartet EMB 100/SQ109 25/LZD 130/PZA 150 mg/kg oral, read-out: Cmax in Quartet
  Cmax: 3500 ± 3100 ng/mL
[3]; BALB/c, plasma, 200 mg/kg, Group 3 triplet BTZ043 37.5/SQ109 25/MXF 200 mg/kg oral, read-out: AUC0-24 in Triplet
  AUC(0-t): 2100 ± 800 ng·h/mL
[3]; BALB/c, plasma, 200 mg/kg, Group 3 triplet BTZ043 37.5/SQ109 25/MXF 200 mg/kg oral, read-out: Cmax in Triplet
  Cmax: 700 ± 500 ng/mL
[3]; in vivo
  plasma exposure in combination compared with individual (reported) exposure: higher
[4]
  reported AUC: 250 ng·h/mL
